Consider 1 compound from patent US20240108737A1, “ANTI-INFECTIVE BICYCLIC PEPTIDE LIGANDS” (priority 2021, published 2024).

SMILES strings stand for the structures. pIC50: −log10 of the molar value. *1 amine or outer side, *2 acyl side, *3 side chain or, on linkers, in order; H or OH if unused. Where a SMILES comes first, the peptide text is derived from it. Bridges are numbered along the chain shown (N, C = ends). Roman numbers before positions name the chains, in order. [ ]: non-standard residue; d: D form. X1 = O=C(CCOCCOCCOCCOCCOCCOCCOCCOCCOCCOCCOCCOCCOCCOCCOCCOCCOCCOCCOCCOCCOCCOCCOCCOCCn1cc(CCC(=O)[*:2])nn1)[*:1]; TATB = O=C(C[*:1])N1CN(C(=O)C[*:2])CN(C(=O)C[*:3])C1; X2 = C(c1nc(C[*:2])nc(C[*:3])n1)[*:1]; hArg = N=C(N)NCCCC[C@H](N)C(=O)O; tBuAla = CC(C)(C)C[C@H](N)C(=O)O

The test system of the assay is SARS-CoV-2 pseudotyped HIV-1 virions, D614G.

A word on the pIC50: it is the negative decadic logarithm of the IC50, by convention in mol/L.

As for `CC(=O)N[C@H]1CSCC(=O)N2CN3CN(C2)C(=O)CSC[C@H](NC(=O)[C@H](C(C)C)NC(=O)[C@@H]2CCCN2C(=O)[C@H](CC(N)=O)NC(=O)[C@H](CC(=O)O)NC(=O)[C@@H]2CCCN2C(=O)[C@H](CC(N)=O)NC(=O)[C@H](C)NC1=O)C(=O)N[C@@H](CCCNC(=N)N)C(=O)N[C@@H](Cc1ccccc1)C(=O)N[C@@H](Cc1ccc(O)cc1)C(=O)N[C@H](C(=O)N[C@@H](CCCCNC(=O)CCOCCOCCOCCOCCOCCOCCOCCOCCOCCOCCOCCOCCOCCOCCOCCOCCOCCOCCOCCOCCOCCOCCOCCOCCn1cc(CCC(=O)NCCCC[C@H](NC(=O)[C@@H]2CSCc4nc5nc(n4)CSC[C@H](NC(C)=O)C(=O)N4CCC[C@H]4C(=O)N[C@@H](Cc4ccc(O)cc4)C(=O)N[C@@H](C(C)C)C(=O)N[C@@H](C)C(=O)NCC(=O)N[C@@H](CCCCNC(=N)N)C(=O)N[C@H](C)C(=O)N[C@@H]([C@@H](C)O)C(=O)N[C@@H](CSC5)C(=O)N[C@@H](CC(C)C)C(=O)N[C@@H](CC(C)(C)C)C(=O)N2)C(N)=O)nn1)C(N)=O)CSCC3=O` [BCY18786] (I: Ac-CANPDNPVCRFYCK-NH2 / II: Ac-CPYVAG[hArg][dA]TCL[tBuAla]CK-NH2; linker I:1-I:9-I:13 via TATB; linker I:14-II:14 via X1; linker II:1-II:10-II:13 via X2), the pIC50 is 7.70.
